This note sets out measurements from US12329754B2 (priority 2018, dated 2025).

Structures can show the parent of a compound that is named as a salt. Where two headings read alike, the source gives them in different places.

Data set [1] has as its system LASV-GP/HIV-luc pseudovirus. As to the kind of experiment: organism not typed. It counts as cell-based. As to conditions: read-out: EC50 against the Lassa virus entering the host.
Data set [2] deals with EBOV-Zaire GP/HIV-luc pseudovirus. As to the kind of experiment: organism not typed. It counts as cell-based, Zaire ebolavirus. To be noted: for EC50: HEK-293T, read-out: half-maximum effect concentration (EC50) against EBOV.
The test system of data set [3] is MARV-GP/HIV-luc pseudovirus. As to the kind of experiment: microbe, parasite or virus in culture. It counts as cell-based. As to conditions: read-out: EC50 against the Marburg virus entering the host.
Data set [4] concerns EBOV-Zaire GP/HIV-luc pseudovirus. It counts as cell-based, Zaire ebolavirus.

Regarding `COc1cc2c3cc1Oc1c(OC)c(OC)cc4c1[C@@H](Cc1ccc(O)c(c1)Oc1ccc(cc1)C[C@@H]3N(C)CC2)N(C)CC4` [berbamine dihydrochloride], the EC50 in data set [1] was 2640 nM; in data set [2] (48 h) it was 490 nM; in data set [2], 490 nM; in data set [3], 990 nM. The “inhibition rate on the EBOV-Zaire GP/HIV-luc pseudovirus” value in data set [2] is reported as “over 80%”. Besides, in the data set on 293T cells, the “effect on cell activity (CCK-8, OD 450 nm)” value was “no significant effect”.
`O=C1Nc2ccc(Cl)cc2[C@@](C#CC2CC2)(C(F)(F)F)O1` [efavirenz]: in data set [4], the “inhibition effect on the virus when added at 6 h (TOA)” value is recorded as “still had an inhibition effect”.
